These results are taken from paper PMC2797373 (Bioorganic & medicinal chemistry, 2009).

human A2AAR, sequence (P29274 whole entry): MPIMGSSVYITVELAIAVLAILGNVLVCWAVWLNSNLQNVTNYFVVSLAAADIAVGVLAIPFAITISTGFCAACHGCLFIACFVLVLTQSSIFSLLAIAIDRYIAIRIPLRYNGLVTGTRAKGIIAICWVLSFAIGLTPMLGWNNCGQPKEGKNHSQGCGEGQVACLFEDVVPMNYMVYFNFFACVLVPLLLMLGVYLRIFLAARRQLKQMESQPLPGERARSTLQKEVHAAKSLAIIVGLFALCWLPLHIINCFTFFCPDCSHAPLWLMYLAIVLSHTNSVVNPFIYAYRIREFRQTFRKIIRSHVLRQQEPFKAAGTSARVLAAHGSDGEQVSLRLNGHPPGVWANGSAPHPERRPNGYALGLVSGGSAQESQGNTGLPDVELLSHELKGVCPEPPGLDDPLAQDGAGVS

One assay has as its target human A2AAR (Homo sapiens, UniProt P29274). As to the kind of experiment: Radioligand binding at human A2AAR expressed in CHO cells. Conditions: read-out: % inhibition at 1 µM (hA2AAR).
Take `CNc1ncnc2c1ncn2[C@@H]1S[C@H](C(=O)NC2CCCC2)[C@@H](O)[C@H]1O` [Compound 5f, 9-(5’-Cyclopentylaminocarbonyl-4’-thio-β-D-ribofuranosyl)-N^6-methyladenine]: the inhibition at 1 µM came to 45 ± 1%.

`Cc1ccc(CNC(=O)[C@H]2S[C@@H](n3cnc4c(NCc5cccc(I)c5)ncnc43)[C@H](O)[C@@H]2O)cc1` [Compound 5r, N^6-(3-Iodo-benzyl)-9-[5’-(4-methyl-benzylaminocarbonyl-4’-thio-β-D-ribofuranosyl)]adenine]: the inhibition at 1 µM amounted to 37%.

`COc1ccccc1CNC(=O)[C@H]1S[C@@H](n2cnc3c(NCc4cccc(I)c4)ncnc32)[C@H](O)[C@@H]1O` [Compound 5s, N^6-(3-Iodo-benzyl)-9-[5’-(2-methoxy-benzylaminocarbonyl-4’-thio-β-D-ribofuranosyl)]adenine]: the inhibition at 1 µM was 28 ± 9%.

For `O=C(NCc1cccc(F)c1)[C@H]1S[C@@H](n2cnc3c(NCc4cccc(I)c4)ncnc32)[C@H](O)[C@@H]1O` [Compound 5n, 9-[5’-(3-Fluoro-benzylaminocarbonyl-4’-thio-β-D-ribofuranosyl)]-N^6-(3-iodobenzyl)adenine], the inhibition at 1 µM came to 35 ± 8%.

Regarding `CCOc1ccccc1CNC(=O)[C@H]1S[C@@H](n2cnc3c(NCc4cccc(I)c4)ncnc32)[C@H](O)[C@@H]1O` [Compound 5t, 9-[5’-(2-Ethoxy-benzylaminocarbonyl-4’-thio-β-D-ribofuranosyl)]-N^6-(3-iodobenzyl)adenine], the inhibition at 1 µM was determined as 23 ± 8%.

For `Cc1cccc(CNC(=O)[C@H]2S[C@@H](n3cnc4c(NCc5cccc(I)c5)ncnc43)[C@H](O)[C@@H]2O)c1` [Compound 5q, N^6-(3-Iodo-benzyl)-9-[5’-(3-methyl-benzylaminocarbonyl-4’-thio-β-D-ribofuranosyl)]adenine], the inhibition at 1 µM is 31 ± 1%.

Take `O=C(NC1CCCCC1)[C@H]1S[C@@H](n2cnc3c(NCc4cccc(I)c4)ncnc32)[C@H](O)[C@@H]1O` [Compound 5m, 9-(5’-Cyclohexylaminocarbonyl-4’-thio-β-D-ribofuranosyl)-N^6-(3-iodobenzyl)adenine]: the inhibition at 1 µM worked out at 24 ± 7%.

For the compound `CCNC(=O)[C@H]1S[C@@H](n2cnc3c(NC)ncnc32)[C@H](O)[C@@H]1O` [Compound 5b, 9-(5’-Ethylaminocarbonyl-4’-thio-β-D-ribofuranosyl)-N^6-methyladenine], the inhibition at 1 µM came to 20%.

For the compound `Cc1ccccc1CNC(=O)[C@H]1S[C@@H](n2cnc3c(NCc4cccc(I)c4)ncnc32)[C@H](O)[C@@H]1O` [Compound 5p, N^6-(3-Iodo-benzyl)-9-[5’-(2-methyl-benzylaminocarbonyl-4’-thio-β-D-ribofuranosyl)]adenine], the inhibition at 1 µM came out at 26 ± 10%.

Turning to `CNc1ncnc2c1ncn2[C@@H]1S[C@H](C(=O)NCc2cccc(I)c2)[C@@H](O)[C@H]1O` [Compound 5g, 9-[(5’-(3-Iodo-benzylaminocarbonyl)-4’-thio-β-D-ribofuranosyl)]-N^6-methyladenine], the inhibition at 1 µM amounted to 27 ± 10%.

For the compound `O=C(NCc1cccc(Cl)c1)[C@H]1S[C@@H](n2cnc3c(NCc4cccc(I)c4)ncnc32)[C@H](O)[C@@H]1O` [Compound 5o, 9-[5’-(3-Chloro-benzylaminocarbonyl-4’-thio-β-D-ribofuranosyl)]-N^6-(3-iodobenzyl)adenine], the inhibition at 1 µM was found to be 44 ± 1%.

Consider `CNC(=O)[C@H]1S[C@@H](n2cnc3c(NC)ncnc32)[C@H](O)[C@@H]1O` [Compound 5a, N^6-Methyl-9-(5’-methylaminocarbonyl-4’-thio-β-D-ribofuranosyl)adenine], for which the inhibition at 1 µM was found to be 35 ± 8%.

Regarding `CNc1ncnc2c1ncn2[C@@H]1S[C@H](C(=O)NCC2CC2)[C@@H](O)[C@H]1O` [Compound 5d, 9-(5’-Cyclopropylmethylaminocarbonyl-4’-thio-β-D-ribofuranosyl)-N^6-methyladenine], the inhibition at 1 µM was 38 ± 5%.

Take `O=C(NCCc1ccccc1)[C@H]1S[C@@H](n2cnc3c(NCc4cccc(I)c4)ncnc32)[C@H](O)[C@@H]1O` [Compound 5v, N^6-(3-Iodo-benzyl)-9-[5’-(2-phenetylaminocarbonyl-4’-thio-β-D-ribofuranosyl)]adenine]: the inhibition at 1 µM turned out to be 11%.

In the case of `CNC(=O)[C@H]1S[C@@H](n2cnc3c(NC)nc(Cl)nc32)[C@H](O)[C@@H]1O` [Compound 4, reference compound], the inhibition at 1 µM was 20%.

For the next assay, the target named is T1, human A3 adenosine receptor (Homo sapiens, UniProt P0DMS8).
T1 sequence (P0DMS8 1-318): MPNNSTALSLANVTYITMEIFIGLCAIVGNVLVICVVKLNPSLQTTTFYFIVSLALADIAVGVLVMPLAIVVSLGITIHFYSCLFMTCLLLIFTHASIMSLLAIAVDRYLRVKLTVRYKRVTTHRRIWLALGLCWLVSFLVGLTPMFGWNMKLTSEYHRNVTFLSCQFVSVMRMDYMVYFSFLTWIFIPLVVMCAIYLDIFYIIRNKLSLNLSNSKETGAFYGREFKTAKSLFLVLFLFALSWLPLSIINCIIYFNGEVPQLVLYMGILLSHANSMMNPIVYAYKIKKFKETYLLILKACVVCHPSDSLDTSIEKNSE
Assay: not given
The note with it: transfected CHO cells. The format is cell-based.
With `CNC(=O)[C@H]1S[C@@H](n2cnc3c(NCc4cccc(I)c4)ncnc32)[C@H](O)[C@@H]1O` [Compound 5h, N^6-(3-Iodo-benzyl)-9-(5’-methylaminocarbonyl-4’-thio-β-D-ribofuranosyl)adenine], the “Agonist efficacy at human A3AR (inhibition of cyclic AMP)” value is given as “full agonist”.

System in a further assay: not given
Assay: not given
Conditions: cited from earlier work.
Regarding `CNC(=O)[C@H]1S[C@@H](n2cnc3c(NCc4cccc(I)c4)nc(Cl)nc32)[C@H](O)[C@@H]1O` [Compound 3, thio-Cl-IB-MECA], the “In vitro anticancer activity” value is given as “potent”.

System in the next assay: not given
Assay: not given
Conditions: cited from earlier work. The source holds these as a separate data set.
As to `CNC(=O)[C@H]1S[C@@H](n2cnc3c(NCc4cccc(I)c4)nc(Cl)nc32)[C@H](O)[C@@H]1O` [Compound 3, thio-Cl-IB-MECA], the “In vivo anticancer activity” value was “potent”.

The term inhibition denotes the change of the read-out against control, counted positive when it falls.
